From US20100221719A1, “Probes for detecting protein nuclear transport and method for detecting and quantifying protein nuclear transport using the same” (priority 2004, published 2010)

Key:
[1] = biological target: T1, androgen receptor (AR) (Homo sapiens, UniProt P10275); experiment: Cell-based in vitro assay of AR translocation into the nucleus (reconstituted RLuc luminescence, COS-7 cells)
T1 construct: DnaE-C (C-terminal splicing domain of DnaE intein) (N); expressed in transfected cells; host or cells: COS-7
T1 sequence (P10275 1-920): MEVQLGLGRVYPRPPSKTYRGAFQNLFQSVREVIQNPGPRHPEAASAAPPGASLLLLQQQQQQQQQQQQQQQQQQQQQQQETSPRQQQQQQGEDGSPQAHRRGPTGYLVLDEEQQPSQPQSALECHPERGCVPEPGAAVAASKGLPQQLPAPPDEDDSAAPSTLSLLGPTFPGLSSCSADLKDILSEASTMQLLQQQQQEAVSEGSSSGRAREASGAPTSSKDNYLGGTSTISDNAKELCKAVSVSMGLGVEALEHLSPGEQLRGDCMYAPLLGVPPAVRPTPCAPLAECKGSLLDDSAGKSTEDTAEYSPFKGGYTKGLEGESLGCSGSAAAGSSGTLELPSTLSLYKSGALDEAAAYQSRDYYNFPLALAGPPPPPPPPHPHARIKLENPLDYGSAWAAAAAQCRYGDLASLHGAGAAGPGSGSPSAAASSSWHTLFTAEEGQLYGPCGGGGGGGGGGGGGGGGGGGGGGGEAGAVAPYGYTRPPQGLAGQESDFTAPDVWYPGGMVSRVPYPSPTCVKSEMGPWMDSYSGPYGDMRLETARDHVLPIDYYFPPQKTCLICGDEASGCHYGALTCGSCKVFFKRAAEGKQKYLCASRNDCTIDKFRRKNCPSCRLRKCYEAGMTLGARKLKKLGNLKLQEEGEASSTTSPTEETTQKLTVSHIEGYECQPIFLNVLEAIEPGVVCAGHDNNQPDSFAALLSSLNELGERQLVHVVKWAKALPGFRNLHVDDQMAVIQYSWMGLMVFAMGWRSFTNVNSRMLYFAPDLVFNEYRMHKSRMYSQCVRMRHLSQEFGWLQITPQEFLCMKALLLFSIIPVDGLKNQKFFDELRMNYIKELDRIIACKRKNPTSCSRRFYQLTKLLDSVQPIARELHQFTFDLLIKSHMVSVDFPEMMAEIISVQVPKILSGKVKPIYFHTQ
Description: COS-7 cells were cotransfected with the plasmids and incubated for 12 h. The medium was replaced with DMEM supplemented with 10% FBS, and 24 h after the replacement, steroid hormones or synthetic chemicals were added to each well.
After the COS-7 cells were extensively incubated for 2 hours, the cells were harvested, and luciferase activity was evaluated by using the Renilla luciferase assay kit (Promega) with a luminometer (Minilumat LB9506; Berthold, GmbH) with an integration time of 20 sec.
The cells were harvested, and their lysates were mixed with a coelenterazine solution.

[2] = biological target: T1, androgen receptor (AR); experiment: In vivo imaging of AR nuclear import in mouse brain with implanted cotransfected COS-7 cells; conditions: inhibitor 10 mg/kg i.p. plus DHT, average from three mice
Description: Two hours after injection, 10 μl of coelenterazine (0.14 mg/kg of body weight) was injected intracerebrally in the mice, and representatives from each mouse group (n=3) were imaged in 2-min intervals.

[3] = biological target: T2, glucocorticoid receptor (GR) (Homo sapiens, UniProt P04150); experiment: Quantification of GR translocation into the nucleus (reconstituted RLuc luminescence, NIH3T3 cells); assay type: cell-based
T2 construct: DnaE-C (C-terminal splicing domain of DnaE intein) (N); expressed in transfected cells; host or cells: NIH3T3
T2 sequence (P04150 1-777): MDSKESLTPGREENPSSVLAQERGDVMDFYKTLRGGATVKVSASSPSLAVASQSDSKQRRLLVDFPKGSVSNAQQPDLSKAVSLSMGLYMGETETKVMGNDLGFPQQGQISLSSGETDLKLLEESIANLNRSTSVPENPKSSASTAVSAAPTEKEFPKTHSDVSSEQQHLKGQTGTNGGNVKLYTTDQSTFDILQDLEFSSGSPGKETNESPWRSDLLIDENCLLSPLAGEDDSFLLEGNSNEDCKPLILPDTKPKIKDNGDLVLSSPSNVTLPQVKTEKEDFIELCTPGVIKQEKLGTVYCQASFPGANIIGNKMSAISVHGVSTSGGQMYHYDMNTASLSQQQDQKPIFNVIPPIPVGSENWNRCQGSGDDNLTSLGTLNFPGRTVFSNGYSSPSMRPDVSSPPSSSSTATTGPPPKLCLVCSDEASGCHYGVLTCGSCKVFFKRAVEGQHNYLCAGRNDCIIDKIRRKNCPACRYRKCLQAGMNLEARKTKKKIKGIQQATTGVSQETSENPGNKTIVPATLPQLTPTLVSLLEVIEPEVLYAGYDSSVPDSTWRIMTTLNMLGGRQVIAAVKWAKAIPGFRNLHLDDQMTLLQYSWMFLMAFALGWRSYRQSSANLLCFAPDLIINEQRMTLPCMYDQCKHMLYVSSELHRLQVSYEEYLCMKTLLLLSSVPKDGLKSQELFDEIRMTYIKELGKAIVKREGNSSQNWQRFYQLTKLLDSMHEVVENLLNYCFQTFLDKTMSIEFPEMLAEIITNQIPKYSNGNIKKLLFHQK
Description: NIH3T3 cells were cotransfected with pcRDn-NLS and pcDRc-GR, and different concentrations of corticosterone were added to each microtiter well. The cells were harvested, and their lysates were mixed with a coelenterazine solution.

[4] = tested on: Sterol Regulatory Element-Binding Proten-2 (SREBP-2); experiment: Quantification of SREBP-2 translocation into the nucleus (reconstituted RLuc luminescence, COS-7 cells); assay type: cell-based; conditions: different concentrations of cholesterol, FIG. 19
Description: Translocation of SERPB-2 into the nucleus was qualified in the same manner as in Example 7. COS-7 cells were cotransfected with pcRDn-NLS and pcDRc-SREBP, and different concentrations of cholesterol were added to each microtiter well. The cells were harvested, and their lysates were mixed with a coelenterazine solution.

[5] = tested on: Sterol Regulatory Element-Binding Proten-2 (SREBP-2); experiment: Confirmation of SREBP-2 localization in COS-7 cells transfected with pcDRc-SREBP; assay type: cell-based; conditions: in the presence of cholesterol, FIG. 18
Excerpt: Plasmid pcDRc-AR in Examples 1 to 6 was cleaved with restriction endonucleases NotI and XhoI to remove the cDNA encoding AR, and a cDNA encoding SREBP-2 was inserted at NotI and XhoI sites thereby constructing pcDRc-SREBP (FIG. 17).

[6] = biological target: T2, glucocorticoid receptor (GR); experiment: Confirmation of GR localization in NIH3T3 cells transfected with pcDRc-GR; assay type: cell-based; conditions: addition of corticosterone, FIG. 14
Description: Plasmid pcDRc-AR in Examples 1 to 6 was cleaved with restriction endonucleases NotI and XhoI to remove the cDNA encoding AR, and a cDNA encoding glucocorticoid receptor (GR) was inserted at NotI and XhoI sites (FIG. 13). The same experiment as in case of AR was performed using the thus-constructed plasmid.

[7] = tested on: Signal Transducer and Activator of Transcription 3 (STAT-3); experiment: Quantification of STAT-3 translocation into the nucleus (reconstituted RLuc luminescence, HEK293 cells); assay type: cell-based; conditions: different concentrations of OSM
Description: HEK293 cells were cotransfected with pcRDn-NLS and pcDRc-STAT3, and different concentrations of OSM were added to each microtiter well. The cells were harvested, and their lysates were mixed with a coelenterazine solution.

[8] = tested on: Signal Transducer and Activator of Transcription 3 (STAT-3); experiment: Confirmation of STAT-3 localization in HEK293 cells transfected with pcDRc-STAT3; assay type: cell-based; conditions: addition of OSM, FIG. 21
Excerpt: Plasmid pcDRc-AR in Examples 1 to 6 was cleaved with restriction endonucleases NotI and XhoI to remove the cDNA encoding AR, and a cDNA encoding STAT-3 was inserted at NotI and XhoI sites thereby constructing pcDRc-STAT-3 (FIG. 20).

CC12CC1(C)C(=O)N(c1cc(Cl)cc(Cl)c1)C2=O (stereo not shown) [procymidone]
inhibition of DHT-induced luminescence / nuclear translocation of AR ([1]; in the presence of DHT, FIG. 5c): inhibit the DHT-induced strong luminescence | increase in observed luminescence intensity (AR translocation, compound alone) ([1]; over the concentration range tested, FIG. 5b): did not induce any increase | luminescence intensity on stimulation with DHT together with inhibitor [2]: decrease in luminescence intensity

C[C@]12CCC(=O)C=C1CC[C@@H]1[C@@H]2[C@@H](O)C[C@@]2(C)[C@H]1CC[C@]2(O)C(=O)CO [cortisol]
induction of GR translocation into the nucleus ([3]; FIG. 15): induce the GR translocation into the nucleus

CC(C)CCC[C@@H](C)[C@H]1CC[C@H]2[C@@H]3CC=C4C[C@@H](O)CC[C@]4(C)[C@H]3CC[C@]12C [cholesterol]
luminescence signals of reconstituted RLuc (dose-response) [4]: increased with decreasing the concentration of cholesterol | localization of the probe with SREBP-2 [5]: predominantly in cytoplasmic

C[C@]12C[C@H](O)[C@H]3[C@@H](CCC4=CC(=O)CC[C@@]43C)[C@@H]1CC[C@@H]2C(=O)CO [corticosterone]
luminescence signals of reconstituted RLuc (dose-response) ([3]; different concentrations of corticosterone): increased with increasing the concentration of corticosterone | localization of Probe I (GR) [6]: nuclear localization of Probe I

B1: oncostatin M (protein, UniProt P13725 26-221, looked up)
Oncostatin-M: AAIGSCSKEYRVLLGQLQKQTDLMQDTSRLLDPYIRIQGLDVPKLREHCRERPGAFPSEETLRGLGRRGFLQTLNATLGCVLHRLADLEQRLPKAQDLERSGLNIEDLEKLQMARPNILGLRNNIYCMAQLLDNSDTAEPTKAGRGASQPPTPTPASDAFQRKLEGCRFLHGYHRFMHSVGRVFSKWGESPNRSRR
notes: oncostatin M (OSM), a ligand
luminescence signals of reconstituted RLuc (dose-response) [7]: increased with decreasing the concentration of cOSM | localization of the probe with STAT3 [8]: nuclear localization of the probe
